Laboratory results taken from the OligoGym collection.
Values joined by “and” are separate entries in the source; they are usually repeats but may differ in a detail not shown here. Equal entries are not always repeated. After the bases stand the sugars from the 5' end (letter, count) and the backbone: PS all phosphorothioate, else s phosphorothioate and o phosphodiester by linkage. HELM strings list units from the 5' end as sugar, base in round brackets, then linkage (d deoxyribose, r ribose, m 2'-O-methyl, p phosphodiester). Methylation of C is not given here. [moe] = 2'-O-(2-methoxyethyl) (MOE); [cEt] = constrained ethyl (cEt); [sp] = phosphorothioate linkage; e = 2'-O-(2-methoxyethyl) (MOE); k = constrained ethyl (cEt); d = 2'-deoxy (DNA)

Legend:
HBV = settings: ASO
IRF5 = settings: ASO

Substance | target mRNA inhibition (HBV; HepG2, 0.07 µM) | target mRNA inhibition (IRF5; KARPAS-229, 4 µM) | other results
RNA1{[moe](A)[sp].[moe](A)[sp].[moe](G)[sp].d(C)[sp].d(G)[sp].d(A)[sp].d(A)[sp].d(G)[sp].d(T)[sp].d(G)[sp].d(C)[sp].d(A)[sp].[moe](C)[sp].[moe](A)[sp].[moe](C)[sp].[moe](G)}$$$$V2.0 | 74% and 64% | – | –
RNA1{[moe](T)[sp].[cEt](T)[sp].[cEt](C)[sp].d(C)[sp].d(G)[sp].d(C)[sp].d(A)[sp].d(G)[sp].d(T)[sp].d(A)[sp].d(T)[sp].d(G)[sp].d(G)[sp].[cEt](A)[sp].[cEt](T)[sp].[moe](C)}$$$$V2.0 | 47% and 61% | – | –
RNA1{[moe](G)[sp].[moe](C)[sp].[moe](A)[sp].[moe](C)[sp].d(T)[sp].d(A)[sp].d(G)[sp].d(T)[sp].d(A)[sp].d(A)[sp].d(A)[sp].d(C)[sp].d(T)[sp].[moe](G)[sp].[moe](A)[sp].[moe](G)}$$$$V2.0 | 52% and 53% | – | –
RNA1{[moe](T)[sp].[cEt](A)[sp].[cEt](T)[sp].d(G)[sp].d(C)[sp].d(C)[sp].d(T)[sp].d(A)[sp].d(C)[sp].d(A)[sp].d(G)[sp].d(C)[sp].d(C)[sp].[cEt](T)[sp].[cEt](C)[sp].[moe](C)}$$$$V2.0 | 55% and 36% | – | –
RNA1{[moe](T)[sp].[moe](T)[sp].[moe](C)[sp].[moe](C)[sp].[moe](G)[sp].d(C)[sp].d(A)[sp].d(G)[sp].d(T)[sp].d(A)[sp].d(T)[sp].d(G)[sp].d(G)[sp].d(A)[sp].[moe](T)[sp].[moe](C)}$$$$V2.0 | 59% and 58% | – | –
RNA1{[moe](T)[sp].[moe](G)[sp].[moe](C)[sp].[moe](A)[sp].d(G)[sp].d(A)[sp].d(G)[sp].d(G)[sp].d(T)[sp].d(G)[sp].d(A)[sp].d(A)[sp].d(G)[sp].[moe](C)[sp].[moe](G)[sp].[moe](A)[sp].[moe](A)}$$$$V2.0 | 68% and 58% | – | –
RNA1{[moe](C)[sp].[moe](A)[sp].[moe](G)[sp].[moe](A)[sp].d(G)[sp].d(G)[sp].d(T)[sp].d(G)[sp].d(A)[sp].d(A)[sp].d(G)[sp].d(C)[sp].d(G)[sp].[moe](A)[sp].[moe](A)[sp].[moe](G)[sp].[moe](T)}$$$$V2.0 | 60% and 45% | – | –
RNA1{[moe](G)[sp].[moe](T)[sp].[moe](G)[sp].d(C)[sp].d(A)[sp].d(G)[sp].d(A)[sp].d(G)[sp].d(G)[sp].d(T)[sp].d(G)[sp].d(A)[sp].d(A)[sp].[cEt](G)[sp].[cEt](C)[sp].[cEt](G)}$$$$V2.0 | 78% and 74% | – | –
RNA1{[moe](G)[sp].[moe](A)[sp].[moe](G)[sp].d(G)[sp].d(T)[sp].d(G)[sp].d(A)[sp].d(A)[sp].d(G)[sp].d(C)[sp].d(G)[sp].d(A)[sp].[moe](A)[sp].[moe](G)[sp].[moe](T)[sp].[moe](G)[sp].[moe](C)}$$$$V2.0 | 81% and 71% | – | –
RNA1{[moe](A)[sp].[moe](C)[sp].d(G)[sp].d(T)[sp].d(G)[sp].d(C)[sp].d(A)[sp].d(G)[sp].d(A)[sp].d(G)[sp].d(G)[sp].[moe](T)[sp].[moe](G)[sp].[moe](A)[sp].[moe](A)[sp].[moe](G)[sp].[moe](C)}$$$$V2.0 | 78% | – | target mRNA inhibition (HBV; HepG2, 0.0092593 µM): 20%; target mRNA inhibition (HBV; HepG2, 0.0277778 µM): 25%; target mRNA inhibition (HBV; HepG2, 0.0833333 µM): 69%; target mRNA inhibition (HBV; HepG2, 0.25 µM): 89%
RNA1{[moe](A)[sp].[moe](C)[sp].[moe](C)[sp].[moe](A)[sp].d(C)[sp].d(T)[sp].d(G)[sp].d(A)[sp].d(A)[sp].d(C)[sp].d(A)[sp].d(A)[sp].d(A)[sp].[moe](T)[sp].[moe](G)[sp].[moe](G)[sp].[moe](C)}$$$$V2.0 | 60% and 61% | – | –
RNA1{[moe](C)[sp].[moe](C)[sp].d(G)[sp].d(C)[sp].d(A)[sp].d(G)[sp].d(T)[sp].d(A)[sp].d(T)[sp].d(G)[sp].d(G)[sp].[moe](A)[sp].[moe](T)[sp].[moe](C)[sp].[moe](G)[sp].[moe](G)[sp].[moe](C)}$$$$V2.0 | 86% and 80% | – | –
RNA1{[moe](G)[sp].[cEt](A)[sp].[cEt](G)[sp].d(T)[sp].d(T)[sp].d(C)[sp].d(C)[sp].d(G)[sp].d(C)[sp].d(A)[sp].d(G)[sp].d(T)[sp].d(A)[sp].[cEt](T)[sp].[cEt](G)[sp].[moe](G)}$$$$V2.0 | 83% and 76% | – | –
RNA1{[moe](G)[sp].[moe](A)[sp].[moe](G)[sp].d(T)[sp].d(T)[sp].d(C)[sp].d(C)[sp].d(G)[sp].d(C)[sp].d(A)[sp].d(G)[sp].d(T)[sp].[moe](A)[sp].[moe](T)[sp].[moe](G)[sp].[moe](G)}$$$$V2.0 | 54% and 30% | – | –
RNA1{[moe](T)[sp].[moe](A)[sp].[moe](T)[sp].[moe](G)[sp].d(C)[sp].d(C)[sp].d(T)[sp].d(A)[sp].d(C)[sp].d(A)[sp].d(G)[sp].d(C)[sp].d(C)[sp].[moe](T)[sp].[moe](C)[sp].[moe](C)}$$$$V2.0 | 33% and 42% | – | –
RNA1{[moe](A)[sp].[moe](G)[sp].d(A)[sp].d(G)[sp].d(G)[sp].d(T)[sp].d(G)[sp].d(A)[sp].d(A)[sp].d(G)[sp].d(C)[sp].[moe](G)[sp].[moe](A)[sp].[moe](A)[sp].[moe](G)[sp].[moe](T)[sp].[moe](G)}$$$$V2.0 | 56% | – | –
RNA1{[moe](A)[sp].[moe](A)[sp].[moe](G)[sp].[cEt](C)[sp].d(G)[sp].d(A)[sp].d(A)[sp].d(G)[sp].d(T)[sp].d(G)[sp].d(C)[sp].d(A)[sp].d(C)[sp].[cEt](A)[sp].[moe](C)[sp].[moe](G)[sp].[moe](G)}$$$$V2.0 | – | – | target mRNA inhibition (HBV; HepG2, 0.009375 µM): 28%; target mRNA inhibition (HBV; HepG2, 0.01875 µM): 27%; target mRNA inhibition (HBV; HepG2, 0.0375 µM): 42%; target mRNA inhibition (HBV; HepG2, 0.075 µM): 59%; target mRNA inhibition (HBV; HepG2, 0.15 µM): 81%; target mRNA inhibition (HBV; HepG2, 0.3 µM): 88%
RNA1{[moe](A)[sp].[cEt](G)[sp].[cEt](A)[sp].d(G)[sp].d(G)[sp].d(T)[sp].d(G)[sp].d(A)[sp].d(A)[sp].d(G)[sp].d(C)[sp].d(G)[sp].d(A)[sp].[cEt](A)[sp].[cEt](G)[sp].[moe](T)}$$$$V2.0 | 68% and 74% | – | –
RNA1{[moe](C)[sp].[moe](C)[sp].[moe](A)[sp].[moe](A)[sp].[moe](T)[sp].d(T)[sp].d(T)[sp].d(A)[sp].d(T)[sp].d(G)[sp].d(C)[sp].d(C)[sp].d(T)[sp].d(A)[sp].[moe](C)[sp].[moe](A)[sp].[moe](G)}$$$$V2.0 | 25% and 9% | – | –
RNA1{[moe](A)[sp].[moe](T)[sp].[moe](T)[sp].[moe](T)[sp].d(A)[sp].d(T)[sp].d(G)[sp].d(C)[sp].d(C)[sp].d(T)[sp].d(A)[sp].d(C)[sp].d(A)[sp].[moe](G)[sp].[moe](C)[sp].[moe](C)}$$$$V2.0 | 52% and 49% | – | –
GGTCTTTGAGGTCTGG (sugars kkddddddddkekekk, PS) | – | 52% | –
CCCAATGCAACATCCA (sugars kkkddddddddkdkdk, PS) | – | 0% | –
CATTCCATATACACAC (sugars kkdddddddddkdkdk, PS) | – | 25% | –
ATTTGCCTTCTGCAGG (sugars k3 d10 k3, PS) | – | 0% | –
GAGTAATAGGAGTGAG (sugars k3 d10 k3, PS) | – | 33% | –
TTATTTCTGCTCCAGG (sugars kddddddddddkekek, PS) | – | 0% | –
AGGAGTGAGACGAGCA (sugars kkkdddddddddkeke, PS) | – | 42% | –

Substance | target mRNA inhibition (HBV; HepG2, 0.07 µM) | target mRNA inhibition (IRF5; KARPAS-229, 4 µM) | other results
CTGTCACATCTCCACA (sugars kkddddddddkekekk, PS) | – | 0% | –
CAATTTTGCATTCCAT (sugars kkddddddddkekekk, PS) | – | 32% | –
CTTGGTCTTGACCTCC (sugars kkkddddddddkdkdk, PS) | – | 19% | –
CTTGATTCCAATTTTG (sugars k3 d10 k3, PS) | – | 20% | –
CCATTCTATGCCTTTT (sugars kkkddddddddkekek, PS) | – | 44% | –
CACATCTCCACATCAG (sugars kddddddddddkekek, PS) | – | 15% | –
TCCAATTTTGCATTCC (sugars kkkdddddddddkeke, PS) | – | 14% | –
GCATTCCATATACACA (sugars kkddddddddkekekk, PS) | – | 0% | –
TGAGTCATGGGCTGAG (sugars kkddddddddddkeke, PS) | – | 0% | –
CACATCTCCACATCAG (sugars kkdddddddddkekek, PS) | – | 22% | –
ATGAGTCATGGGCTGA (sugars k3 d9 k3 e1, PS) | – | 20% | –
CTTGGTCTTGACCTCC (sugars kkddddddddddkeke, PS) | – | 39% | –
TTGTCTAGTGTCATGG (sugars kdddddddddkekeke, PS) | – | 8% | –
TGAGTCTCAAACCAGG (sugars k3 d9 k3 e1, PS) | – | 0% | –
GTTATCTCCGTCCTGG (sugars kkdddddddddkekek, PS) | – | 0% | –
GTGAGTCTCAAACCAG (sugars kkdddddddddkekek, PS) | – | 0% | –
GTCTGGCCCTTTTGGA (sugars k2 d8 e4 k2, PS) | – | 0% | –
ATTCCAATTTTGCATT (sugars k3 d10 k3, PS) | – | 21% | –
CATCTCCACATCAGTC (sugars kdddddddddkekeke, PS) | – | 32% | –
AGATGGTGTTATCTCC (sugars kkddddddddkekekk, PS) | – | 0% | –
TCCAATTTTGCATTCC (sugars kkkddddddddkdkdk, PS) | – | 32% | –
GGGAGTCAGACCTACC (sugars k3 d10 k3, PS) | – | 0% | –
ATGAGTCATGGGCTGA (sugars kkddddddddddkeke, PS) | – | 0% | –
GGTGTATTTCCCTGTC (sugars k3 d9 k3 e1, PS) | – | 0% | –
CCATTCTATGCCTTTT (sugars kkddddddddddkeke, PS) | – | 61% and 62% | target mRNA inhibition (IRF5; KARPAS-229, 0.44444 µM): 37%; target mRNA inhibition (IRF5; KARPAS-229, 1.33333 µM): 45%; target mRNA inhibition (IRF5; KARPAS-229, 12 µM): 73%
ACCACTGTGTACCCCA (sugars kkkddddddddkekek, PS) | – | 6% | –
